Columns and labels:
[1] = molecular target: angiotensin-conversion enzyme (ACE) (Homo sapiens, UniProt P12821); assay: ACE-inhibitory activity; assay type: biochemical; conditions: for IC50: method of Analytical Biochemistry, 84, 361 (1978)
Procedure: Thus, we have tested the enzyme-inhibitory activities of some typical compounds of this invention against angiotensin-conversion enzyme (ACE) which participates in the control of blood-pressure in mammalian animals by converting angiotensin I, a peptide-type hormone in brain, into angiotensin II. The determination of ACE-inhibitory activity was carried out in accordance with the method described in "Analytical Biochemistry", 84, 361 (1978) and the activity was estimated in term of the concentration (mole concentration, M) of each compound tested at which the activity of the enzyme can be inhibited by 50% (IC50).

enkephalinase = enkephalinase (Homo sapiens, UniProt P08473); assay: Enkephalinase-inhibitory activity; assay type: biochemical; conditions: for IC50: concentration which inhibits enzymatic activity of enkephalinase by 50%
Procedure: IC50 concentrations (M concentration) of some typical compounds of this invention which can inhibit enzymatic activity of enkephalinase by 50% were measured.

peptidases = conditions: Journal of Antibiotics, 38, 1629-1630 (1985); U.S. Pat. No. 4,663,342; cited from earlier work

Chain of angiotensin-conversion enzyme (ACE) (P12821 30-1306, species assumed): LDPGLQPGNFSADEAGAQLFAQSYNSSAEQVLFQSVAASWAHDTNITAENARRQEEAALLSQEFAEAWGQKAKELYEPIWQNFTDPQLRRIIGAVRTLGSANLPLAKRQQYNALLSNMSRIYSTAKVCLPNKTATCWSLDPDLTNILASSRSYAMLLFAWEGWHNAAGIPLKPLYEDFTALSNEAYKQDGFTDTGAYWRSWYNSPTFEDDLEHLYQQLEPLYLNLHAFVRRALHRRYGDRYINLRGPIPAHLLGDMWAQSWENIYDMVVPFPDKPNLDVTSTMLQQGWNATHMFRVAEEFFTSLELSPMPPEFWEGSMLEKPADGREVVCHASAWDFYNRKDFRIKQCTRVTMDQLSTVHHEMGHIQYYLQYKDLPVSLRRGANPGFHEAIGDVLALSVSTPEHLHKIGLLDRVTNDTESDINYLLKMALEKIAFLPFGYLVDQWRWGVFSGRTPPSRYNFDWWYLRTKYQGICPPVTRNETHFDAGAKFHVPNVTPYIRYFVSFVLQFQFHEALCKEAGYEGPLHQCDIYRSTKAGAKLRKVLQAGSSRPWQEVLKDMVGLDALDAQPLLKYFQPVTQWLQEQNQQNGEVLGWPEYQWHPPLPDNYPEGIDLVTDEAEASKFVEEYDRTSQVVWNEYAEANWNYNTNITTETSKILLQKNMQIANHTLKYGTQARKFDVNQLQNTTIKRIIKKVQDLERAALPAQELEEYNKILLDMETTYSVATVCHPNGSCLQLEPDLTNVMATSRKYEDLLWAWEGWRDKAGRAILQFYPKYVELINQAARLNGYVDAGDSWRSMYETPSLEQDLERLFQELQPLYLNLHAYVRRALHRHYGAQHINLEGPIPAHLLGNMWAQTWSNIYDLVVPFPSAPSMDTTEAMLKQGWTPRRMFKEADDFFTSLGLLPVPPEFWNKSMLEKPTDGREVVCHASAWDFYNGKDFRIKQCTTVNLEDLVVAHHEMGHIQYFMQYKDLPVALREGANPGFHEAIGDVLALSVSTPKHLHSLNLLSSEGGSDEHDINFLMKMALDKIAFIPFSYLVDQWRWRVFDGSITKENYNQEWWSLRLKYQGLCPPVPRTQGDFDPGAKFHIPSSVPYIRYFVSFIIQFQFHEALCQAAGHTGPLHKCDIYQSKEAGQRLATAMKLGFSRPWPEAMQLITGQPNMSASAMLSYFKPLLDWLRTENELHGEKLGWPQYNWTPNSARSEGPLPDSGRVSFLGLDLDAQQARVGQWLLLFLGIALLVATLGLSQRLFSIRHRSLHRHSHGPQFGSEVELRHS
Chain of enkephalinase (P08473 whole entry, species assumed): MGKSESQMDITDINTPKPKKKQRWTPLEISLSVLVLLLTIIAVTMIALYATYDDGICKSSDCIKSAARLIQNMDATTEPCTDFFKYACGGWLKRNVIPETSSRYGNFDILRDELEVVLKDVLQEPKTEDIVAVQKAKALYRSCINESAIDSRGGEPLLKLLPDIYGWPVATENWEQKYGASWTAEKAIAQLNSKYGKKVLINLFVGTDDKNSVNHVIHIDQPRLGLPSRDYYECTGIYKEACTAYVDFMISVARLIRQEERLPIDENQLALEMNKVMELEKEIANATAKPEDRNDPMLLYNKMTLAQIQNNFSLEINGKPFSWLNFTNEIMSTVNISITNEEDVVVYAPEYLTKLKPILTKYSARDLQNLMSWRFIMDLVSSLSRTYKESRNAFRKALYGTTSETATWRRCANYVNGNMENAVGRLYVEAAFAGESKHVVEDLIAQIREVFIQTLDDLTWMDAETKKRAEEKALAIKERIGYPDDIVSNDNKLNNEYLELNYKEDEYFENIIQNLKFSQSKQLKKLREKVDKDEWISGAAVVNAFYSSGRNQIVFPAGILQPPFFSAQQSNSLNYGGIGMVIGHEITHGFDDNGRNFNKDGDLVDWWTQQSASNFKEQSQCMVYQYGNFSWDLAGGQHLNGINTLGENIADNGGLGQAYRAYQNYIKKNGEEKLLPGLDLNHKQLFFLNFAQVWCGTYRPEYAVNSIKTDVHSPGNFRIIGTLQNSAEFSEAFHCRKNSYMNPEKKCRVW

| Structure (SMILES) | IC50 [1] | IC50 (enkephalinase) | enkephalinase-inhibitory activity, times stronger than that of actinonin (enkephalinase; relative to actinonin as reference, from Table 2) | inhibitory activities against angiotensin-converting enzymes (in words) [1] | inhibits a wide variety of peptidases (in words) (peptidases) |
| --- | --- | --- | --- | --- | --- |
| CCCCC[C@H](CC(=O)NOS(=O)(=O)O)C(=O)NC(C(=O)N1CCC[C@H]1COS(=O)(=O)O)C(C)C (stereo in doubt) [Compound of formula (Ia), (2R)-2-(Sulfoxyaminocarbonylmethyl)heptanoyl-L-valyl-(2S)-2-(sulfoxymethyl)pyrrolidine] | 92 µM | 14 µM | – | – | – |
| CCCCC[C@H](CC(=O)NO)C(=O)NC(C(=O)N1CCC[C@H]1COS(=O)(=O)O)C(C)C (stereo in doubt) [Compound of formula (Ig), (2R)-2-(Hydroxyaminocarbonylmethyl)heptanoyl-L-valyl-(2S)-2-(sulfoxymethyl)pyrrolidine] | 430 µM | 4.1 µM | – | – | – |
| CCCCC[C@H](CC(=O)NO)C(=O)N[C@H](C(=O)N1CCC[C@H]1CO)C(C)C [Actinonin, actinonin] | 590 µM | 5.6 µM | – | low levels of inhibitory activity | inhibits a wide variety of peptidases |

Stronger by IC50 [1], values ahead:

| IC50 [1] | IC50 (enkephalinase) | enkephalinase-inhibitory activity, times stronger than that of actinonin (enkephalinase; relative to actinonin as reference, from Table 2) | inhibitory activities against angiotensin-converting enzymes (in words) [1] | Structure (SMILES) | inhibits a wide variety of peptidases (in words) (peptidases) |
| --- | --- | --- | --- | --- | --- |
| 28 µM | 0.31 µM | more than 10 times | – | CCCCC[C@H](CC(=O)NO)C(=O)NC(C(=O)N1CCC[C@H]1C(=O)O)C(C)C (stereo in doubt) [Compound of formula (Ib), (2R)-2-(Hydroxyaminocarbonylmethyl)heptanoyl-L-valyl-L-proline] | – |
| 0.53 µM | 1.2 µM | – | – | CCCCC[C@H](CC(=O)NO)C(=O)N[C@H](C(=O)N1CCC[C@H]1C(=O)NO)C(C)C [Compound of formula (Id), (2R)-2-(Hydroxyaminocarbonylmethyl)heptanoyl-L-valyl-L-proline.hydroxamide] | – |

Reference: US5206384A, “Actinonin derivatives and pharmaceutically acceptable salts thereof” (Zaidan Hojin Biseibutsu Kagaku Kai, priority 1990, dated 1993)
